Measured values taken from ChEMBL document CHEMBL4219030, “Progress in the discovery of small molecule modulators of the Cys-loop superfamily receptors” (Bioorg Med Chem Lett, 2017).

Legend:
[1] = molecular target: T1, 5-hydroxytryptamine receptor 3A (Cavia porcellus, UniProt O70212); assay: Antagonist activity 5-HT3A receptor in guinea pig ileum assessed as inhibition of 2-methyl-5-HT induced response preincubated for 10 mins followed by agonist addition; conditions: read-out: pA2 (converted)
T1 sequence (O70212 whole entry): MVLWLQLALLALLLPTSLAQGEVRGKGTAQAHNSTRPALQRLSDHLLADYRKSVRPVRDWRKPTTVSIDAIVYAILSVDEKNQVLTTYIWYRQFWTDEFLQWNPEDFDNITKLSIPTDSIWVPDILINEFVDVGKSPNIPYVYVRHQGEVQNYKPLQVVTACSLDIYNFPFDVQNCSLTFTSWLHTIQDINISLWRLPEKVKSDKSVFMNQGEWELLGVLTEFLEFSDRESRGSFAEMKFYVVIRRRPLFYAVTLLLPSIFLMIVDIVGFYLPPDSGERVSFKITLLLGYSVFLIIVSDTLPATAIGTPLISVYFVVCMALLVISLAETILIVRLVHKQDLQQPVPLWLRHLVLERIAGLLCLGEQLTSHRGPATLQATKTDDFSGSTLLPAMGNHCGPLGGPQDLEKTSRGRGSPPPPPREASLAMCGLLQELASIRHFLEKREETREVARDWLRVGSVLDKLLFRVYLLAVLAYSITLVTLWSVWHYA

[2] = molecular target: T2, Glycine receptor subunit alpha-1 (Homo sapiens) (UniProt P23415); assay: Positive allosteric modulation of human glycine receptor alpha1 expressed in HEK293 cells assessed as potentiation of glycine-induced current response at 10 uM measure for 3 to 6 secs by whole cell patch-clamp method relative to glycine; type: cell-based
T2 sequence (whole entry): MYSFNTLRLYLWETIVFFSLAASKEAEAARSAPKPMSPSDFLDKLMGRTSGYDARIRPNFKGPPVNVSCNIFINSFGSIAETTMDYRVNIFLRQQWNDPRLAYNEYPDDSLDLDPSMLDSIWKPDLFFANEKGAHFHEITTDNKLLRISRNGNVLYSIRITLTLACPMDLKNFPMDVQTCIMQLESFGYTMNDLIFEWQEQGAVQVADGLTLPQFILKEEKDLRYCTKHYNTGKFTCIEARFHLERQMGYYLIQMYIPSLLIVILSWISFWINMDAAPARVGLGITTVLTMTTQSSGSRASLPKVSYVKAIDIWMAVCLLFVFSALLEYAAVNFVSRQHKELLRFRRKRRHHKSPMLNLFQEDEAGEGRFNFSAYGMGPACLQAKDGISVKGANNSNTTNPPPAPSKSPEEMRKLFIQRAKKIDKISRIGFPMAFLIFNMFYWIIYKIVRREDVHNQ

[3] = molecular target: T2, Glycine receptor subunit alpha-1 (Homo sapiens); conditions: HEK293, 30 uM
Description: Positive allosteric modulation of recombinant human glycine receptor alpha1 expressed in HEK293 cells assessed as increase in glycine-induced current at 30 uM at -60 mV holding potential measured for 1 to 2 secs for every 60 secs by whole cell patch-clamp method relative to glycine

[4] = molecular target: Gamma-aminobutyric acid receptor subunit alpha-1/beta-2 (Rattus norvegicus) (UniProt P62813+P63138); conditions: HEK293, 30 uM
Description: Positive allosteric modulation of recombinant rat GABAA receptor alpha1beta2 expressed in HEK293 cells assessed as increase in GABA-induced current at 30 uM at -100 mV holding potential measured for 1 to 2 secs for every 60 secs by whole cell patch-clamp method relative to GABA

[5] = molecular target: T3, 5-hydroxytryptamine receptor 3A (Homo sapiens, UniProt P46098); assay: Displacement of [3H]granisetron from human 5-HT3A receptor expressed in HEK293 cells by scintillation counting method; type: cell-based
T3 sequence (P46098 whole entry): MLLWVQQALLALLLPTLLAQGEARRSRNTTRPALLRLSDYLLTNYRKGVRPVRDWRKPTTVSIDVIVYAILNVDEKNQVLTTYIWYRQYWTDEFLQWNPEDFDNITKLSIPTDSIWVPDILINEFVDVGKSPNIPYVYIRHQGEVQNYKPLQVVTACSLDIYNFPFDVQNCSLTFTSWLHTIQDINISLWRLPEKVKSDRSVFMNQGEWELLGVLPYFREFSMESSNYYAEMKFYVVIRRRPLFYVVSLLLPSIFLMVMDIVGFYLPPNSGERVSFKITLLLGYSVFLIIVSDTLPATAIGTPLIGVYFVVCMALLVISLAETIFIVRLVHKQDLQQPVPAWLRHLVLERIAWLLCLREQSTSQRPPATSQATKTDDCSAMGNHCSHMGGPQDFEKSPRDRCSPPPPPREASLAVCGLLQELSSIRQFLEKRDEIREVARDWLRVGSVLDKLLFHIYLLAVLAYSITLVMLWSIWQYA

[6] = molecular target: T4, Serotonin 3 (5-HT3) receptor (Homo sapiens, UniProt O95264+P46098); assay: Displacement of [3H]granisetron from human 5-HT3AB receptor expressed in HEK293 cells by scintillation counting method; type: cell-based
T4 sequence (P46098 whole entry): T3 sequence (P46098 whole entry)
T4 sequence (O95264 whole entry): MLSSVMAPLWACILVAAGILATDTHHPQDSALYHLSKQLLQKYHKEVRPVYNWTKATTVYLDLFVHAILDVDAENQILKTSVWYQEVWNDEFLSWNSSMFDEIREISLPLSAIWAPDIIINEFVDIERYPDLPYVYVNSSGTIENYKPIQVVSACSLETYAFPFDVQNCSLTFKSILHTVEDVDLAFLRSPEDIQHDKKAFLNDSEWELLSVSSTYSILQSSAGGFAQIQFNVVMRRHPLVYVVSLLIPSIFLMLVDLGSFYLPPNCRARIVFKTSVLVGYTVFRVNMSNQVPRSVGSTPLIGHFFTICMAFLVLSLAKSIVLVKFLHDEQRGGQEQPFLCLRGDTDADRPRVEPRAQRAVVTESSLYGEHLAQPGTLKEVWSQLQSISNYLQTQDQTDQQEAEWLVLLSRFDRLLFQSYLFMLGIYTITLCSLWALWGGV

[7] = molecular target: Neuronal acetylcholine receptor subunit alpha-7 (Homo sapiens, UniProt P36544); assay: Inhibition of human alpha7 nAChR expressed in Xenopus oocytes at -80 mV holding potential by electro-physiological analysis; type: cell-based
[8] = molecular target: T3, 5-hydroxytryptamine receptor 3A; assay: Antagonist activity at 5-HT3A receptor (unknown origin) assessed as inhibition of serotonin-induced peak currents
[9] = molecular target: Nicotinic acetylcholine receptor alpha2/beta2 (Homo sapiens, UniProt P02708+P17787); assay: Positive allosteric modulation of human alpha2beta2 nAChR expressed in HEK cells preincubated for 15 mins followed by dihydro-beta-erythroidine hydrobromide addition by fluorometric analysis; type: cell-based
[10] = molecular target: Nicotinic acetylcholine receptor alpha2/beta4 (Homo sapiens, UniProt P02708+P30926); assay: Positive allosteric modulation of human alpha2beta4 nAChR expressed in HEK cells preincubated for 15 mins followed by dihydro-beta-erythroidine hydrobromide addition by fluorometric analysis; type: cell-based
[11] = molecular target: T5, Neuronal acetylcholine receptor; alpha4/beta2 (Homo sapiens, UniProt P17787+P43681); assay: Positive allosteric modulation of human alpha4beta2 nAChR expressed in HEK cells preincubated for 15 mins followed by dihydro-beta-erythroidine hydrobromide addition by fluorometric analysis; type: cell-based
[12] = molecular target: Neuronal acetylcholine receptor; alpha4/beta4 (Homo sapiens, UniProt P30926+P43681); assay: Positive allosteric modulation of human alpha4beta4 nAChR expressed in HEK cells preincubated for 15 mins followed by dihydro-beta-erythroidine hydrobromide addition by fluorometric analysis; type: cell-based
[13] = Positive allosteric modulation of human (alpha4beta2)2alpha4 nAChR expressed in HEK cells preincubated for 15 mins followed by dihydro-beta-erythroidine hydrobromide addition by fluorometric analysis; type: cell-based; conditions: HEK293
[14] = molecular target: T5, Neuronal acetylcholine receptor; alpha4/beta2; assay: Positive allosteric modulation of human (alpha4beta2)2beta2 nAChR expressed in HEK cells preincubated for 15 mins followed by dihydro-beta-erythroidine hydrobromide addition by fluorometric analysis; type: cell-based

T5 sequence (P17787 whole entry): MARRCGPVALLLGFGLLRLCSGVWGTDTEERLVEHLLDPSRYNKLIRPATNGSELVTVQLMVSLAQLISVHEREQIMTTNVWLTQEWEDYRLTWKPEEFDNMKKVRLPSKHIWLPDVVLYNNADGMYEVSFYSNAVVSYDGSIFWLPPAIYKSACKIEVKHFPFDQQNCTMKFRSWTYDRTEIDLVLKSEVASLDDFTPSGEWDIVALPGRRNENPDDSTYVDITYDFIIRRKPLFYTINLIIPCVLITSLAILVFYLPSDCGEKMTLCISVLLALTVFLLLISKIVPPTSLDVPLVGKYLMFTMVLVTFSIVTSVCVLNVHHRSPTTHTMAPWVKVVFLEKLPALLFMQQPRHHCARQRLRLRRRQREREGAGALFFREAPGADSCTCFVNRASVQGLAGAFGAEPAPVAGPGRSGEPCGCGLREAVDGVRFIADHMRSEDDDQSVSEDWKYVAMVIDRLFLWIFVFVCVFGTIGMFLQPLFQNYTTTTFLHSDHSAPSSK
T5 sequence (P43681 whole entry): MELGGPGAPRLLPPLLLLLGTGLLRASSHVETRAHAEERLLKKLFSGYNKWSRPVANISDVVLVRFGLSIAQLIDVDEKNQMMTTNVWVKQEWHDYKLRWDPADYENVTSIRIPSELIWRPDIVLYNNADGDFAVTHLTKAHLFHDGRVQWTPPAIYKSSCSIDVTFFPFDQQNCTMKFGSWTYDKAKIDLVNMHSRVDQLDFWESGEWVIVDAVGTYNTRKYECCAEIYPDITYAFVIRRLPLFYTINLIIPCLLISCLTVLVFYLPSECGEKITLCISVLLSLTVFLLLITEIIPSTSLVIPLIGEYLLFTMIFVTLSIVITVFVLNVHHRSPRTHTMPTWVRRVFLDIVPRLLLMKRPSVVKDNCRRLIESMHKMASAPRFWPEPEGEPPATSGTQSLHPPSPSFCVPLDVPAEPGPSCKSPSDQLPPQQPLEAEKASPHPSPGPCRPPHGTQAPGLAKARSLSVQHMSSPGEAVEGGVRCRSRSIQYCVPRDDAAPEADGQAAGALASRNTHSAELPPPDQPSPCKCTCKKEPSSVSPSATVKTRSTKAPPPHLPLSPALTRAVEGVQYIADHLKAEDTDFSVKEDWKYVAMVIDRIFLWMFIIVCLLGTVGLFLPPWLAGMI
Chain of Neuronal acetylcholine receptor; alpha4/beta4 (P30926 whole entry): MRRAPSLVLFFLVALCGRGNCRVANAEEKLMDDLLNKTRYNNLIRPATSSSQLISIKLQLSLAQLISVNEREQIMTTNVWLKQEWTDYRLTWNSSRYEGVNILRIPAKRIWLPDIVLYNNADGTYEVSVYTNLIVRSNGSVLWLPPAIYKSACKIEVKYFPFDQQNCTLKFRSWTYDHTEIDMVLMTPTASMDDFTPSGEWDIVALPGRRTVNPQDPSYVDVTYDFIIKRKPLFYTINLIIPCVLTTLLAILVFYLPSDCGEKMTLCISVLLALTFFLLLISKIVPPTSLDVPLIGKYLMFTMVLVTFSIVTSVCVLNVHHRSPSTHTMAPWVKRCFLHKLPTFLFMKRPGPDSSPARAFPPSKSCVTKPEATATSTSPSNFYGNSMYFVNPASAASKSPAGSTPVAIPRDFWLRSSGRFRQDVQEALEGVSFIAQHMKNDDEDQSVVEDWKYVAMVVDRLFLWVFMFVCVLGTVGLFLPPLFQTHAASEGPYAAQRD
Chain of Neuronal acetylcholine receptor; alpha4/beta4 (P43681 whole entry): as the sequence (P43681 whole entry) above
Chain of Neuronal acetylcholine receptor subunit alpha-7 (P36544 whole entry): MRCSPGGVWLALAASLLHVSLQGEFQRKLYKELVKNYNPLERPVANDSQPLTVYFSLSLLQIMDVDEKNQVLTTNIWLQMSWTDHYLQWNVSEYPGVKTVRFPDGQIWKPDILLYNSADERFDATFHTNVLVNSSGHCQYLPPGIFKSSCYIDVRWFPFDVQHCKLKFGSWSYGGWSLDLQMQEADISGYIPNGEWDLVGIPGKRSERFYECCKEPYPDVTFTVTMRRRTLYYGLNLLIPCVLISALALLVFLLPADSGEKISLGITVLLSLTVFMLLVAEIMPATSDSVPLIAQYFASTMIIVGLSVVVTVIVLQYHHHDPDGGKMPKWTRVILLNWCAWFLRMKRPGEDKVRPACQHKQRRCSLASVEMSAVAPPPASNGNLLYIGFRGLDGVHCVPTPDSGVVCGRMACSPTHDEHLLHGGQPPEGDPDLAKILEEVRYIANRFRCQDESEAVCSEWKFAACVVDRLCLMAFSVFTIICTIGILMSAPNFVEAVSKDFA
Chain of Nicotinic acetylcholine receptor alpha2/beta4 (P02708 whole entry): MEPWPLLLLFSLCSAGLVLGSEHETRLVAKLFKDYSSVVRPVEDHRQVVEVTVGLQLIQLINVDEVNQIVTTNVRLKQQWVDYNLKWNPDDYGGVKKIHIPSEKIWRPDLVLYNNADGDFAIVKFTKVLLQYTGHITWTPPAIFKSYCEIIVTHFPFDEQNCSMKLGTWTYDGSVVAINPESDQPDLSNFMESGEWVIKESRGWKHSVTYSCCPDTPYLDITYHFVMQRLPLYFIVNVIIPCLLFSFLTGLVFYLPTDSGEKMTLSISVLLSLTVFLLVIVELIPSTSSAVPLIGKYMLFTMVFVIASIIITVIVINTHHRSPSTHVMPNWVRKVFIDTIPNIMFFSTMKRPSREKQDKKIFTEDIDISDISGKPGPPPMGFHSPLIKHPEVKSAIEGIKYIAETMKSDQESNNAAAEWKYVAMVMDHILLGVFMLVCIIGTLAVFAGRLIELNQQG
Chain of Nicotinic acetylcholine receptor alpha2/beta4 (P30926 whole entry): as the sequence (P30926 whole entry) above
Chain of Nicotinic acetylcholine receptor alpha2/beta2 (P02708 whole entry): as the sequence (P02708 whole entry) above
Chain of Nicotinic acetylcholine receptor alpha2/beta2 (P17787 whole entry): as the sequence (P17787 whole entry) above

Question: For `COc1nc2ccccc2nc1C(=O)Nc1ccc(C)cc1`, which Kb [1] is on record?
Answer: Its Kb is 50.1 nM.

Question: With `CCCCNC(=O)c1nc2ccccc2nc1OC` as the compound, how does the Kb [1] read?
Answer: The Kb was 20 nM.

Question: Which fold change (FC) [2] does the source give for `CCCCCc1ccc2c(c1)OC(C)(C)[C@@H]1CCC(C)=C[C@@H]21` here?
Answer: Its fold change (FC) is 30.

Question: Which results are given for `CC(C)c1cccc(C(C)C)c1O`?
Answer: Emax [3]: 189%; Emax [4]: 279%

Question: What does the source list for `CN1CCN(c2nc3ccccc3nc2Cl)CC1`?
Answer: Ki [5]: 0.04 nM; Ki [6]: 22 nM

Question: With `O=C(c1cnc2ccccc2n1)N1CCN(Cc2ccccc2)CC1` as the compound, how does the Kb [1] read?
Answer: The Kb was 15.8 nM.

Question: What does the source list for `C#CCNc1nc(NCCCCC2CCN(Cc3ccccc3)CC2)c(C#N)cc1C#N`?
Answer: IC50 [7]: 320 nM; IC50 [8]: 1400 nM

Question: Which EC50 [9] does the source give for `O=C(N[C@@H]1CCCNC1)c1cc2cccc(Br)c2s1` here?
Answer: The EC50 was 660 nM.

Question: And the EC50 [10]?
Answer: The EC50 was 286 nM.

Question: What about the EC50 [11] of the same compound?
Answer: The EC50 was 446 nM.

Question: What about the EC50 [12] of the same compound?
Answer: Its EC50 is 237 nM.

Question: What about the EC50 [13] of the same compound?
Answer: The EC50 was 165 nM.

Question: What about the EC50 [14] of the same compound?
Answer: The EC50 was 275 nM.
